# Data as given in patent US12310970B2, “Compounds and methods for treating or preventing anterior segment ocular disorders and/or retinal degenerations” (YALE UNIVERSITY, priority 2018, dated 2025).
# How the values were obtained:
# [1] = Solubility / dissolution in aqueous media; format: physicochemical
# Description: 2.00 g HPBCD was dissolved in 4 mL deionized and filtered water by slow inversion/rotation. […] The volume was adjusted to 5.00 mL to provide 5.00 mL of a 40% clear solution by weight. To the 5.00 mL solution of 40% HPBCD was added 175 mg ciclopirox powder, and the vial was sealed and placed under slow rotary inversion to dissolve the solid. […] This 35 mg/mL solution was easily filtered through a 0.22 um syringe filter (MILLEX GV, PVDF membrane).
# To the 5.00 mL solution of 40% HPBCD was added 175 mg (0.844 mmol, MW 207.3) ciclopirox powder and the vial sealed and placed under slow rotary inversion to dissolve the solid. […] This 35 mg/mL solution was easily filtered through a 0.22 um syringe filter (MILLEX GV, PVDF membrane).
# [2] = in water; cited from earlier work
"solubility ([1]; aqueous buffer, pH 7.4 phosphate buffer (no saline)) [µg/mL]","concentration completely dissolved ([1]; in 40% HPBCD, after 1 hour mixing) [µg/mL]",SMILES,solubility limit [2]
1000,35000,"Cc1cc(C2CCCCC2)n(O)c(=O)c1 [ciclopirox, 6-cyclohexyl-1-hydroxy-4-methyl-2(1H)-pyridone]",
,,OC[C@H]1O[C@@H]2O[C@H]3[C@H](O)[C@@H](O)[C@@H](O[C@H]4[C@H](O)[C@@H](O)[C@@H](O[C@H]5[C@H](O)[C@@H](O)[C@@H](O[C@H]6[C@H](O)[C@@H](O)[C@@H](O[C@H]7[C@H](O)[C@@H](O)[C@@H](O[C@H]8[C@H](O)[C@@H](O)[C@@H](O[C@H]9[C@H](O)[C@@H](O)[C@@H](O[C@H]1[C@H](O)[C@H]2O)O[C@@H]9CO)O[C@@H]8CO)O[C@@H]7CO)O[C@@H]6CO)O[C@@H]5CO)O[C@@H]4CO)O[C@@H]3CO [gamma cyclodextrin],about 23.2 mg/mL
